What was measured:
Assay in all cases: relative viability (nuclei count vs DMSO), 5 days (fraction); higher = more cells survive
[1] = compound: O=C(O)C(Cc1ccccc1[N+](=O)[O-])=NNc1nc(-c2ccc(Cl)c(Cl)c2)cs1 (mixture of isomers) [4EGI-1] + CC(C)C[C@H](NC(=O)[C@H](Cc1ccccc1)NC(=O)c1cnccn1)B(O)O [Bortezomib] (partner 0.002 µM)
Summary of the method: (§1)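 For relative viability, nuclei counts in treated wells were divided by those in vehicle wells. Lung cancer cell lines had been pin-tool dosed in 1536-well plates the day after seeding and cultured for 5 days, then fixed and stained in one step (final 0.05% Triton X-100, 1% formaldehyde, 1 ug/ml Hoechst) and imaged at 4×. Doses were one drug alone or a fixed anchor-drug dose plus five library-drug doses (not always all listed) in √10 steps, and values are duplicate-plate medians.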

[2] = compound: CN1CCN(CC1)C2=CC(=C(C=C2)NC3=NC=C4C(=N3)N(C5=CC=CC=C5C(=O)N4C)C)OC [XMD8-85] + Cc1nc(NC(=O)N2CCC[C@H]2C(N)=O)sc1-c1ccnc(C(C)(C)C(F)(F)F)c1 [Alpelisib] (partner 2 µM)
Summary of the method: as §1

[3] = compound: O=C(O)C(Cc1ccccc1[N+](=O)[O-])=NNc1nc(-c2ccc(Cl)c(Cl)c2)cs1 (mixture of isomers) [4EGI-1] + C[C@]1(O)C[C@@H](c2nc(-c3ccc4ccc(-c5ccccc5)nc4c3)c3c(N)nccn32)C1 [Linsitinib] (partner 1 µM)
Summary of the method: as §1

[4] = compound: CN1CCN(CC1)C2=CC(=C(C=C2)NC3=NC=C4C(=N3)N(C5=CC=CC=C5C(=O)N4C)C)OC [XMD8-85] + O=C(c1cc(Cc2n[nH]c(=O)c3ccccc23)ccc1F)N1CCN(C(=O)C2CC2)CC1 [Olaparib] (partner 8 µM)
Summary of the method: as §1

## CAL-12T
[1]; first compound 5 µM
  relative viability: 1.1
[1]; first compound 15.81 µM
  relative viability: 0.951
[1]; first compound 50 µM
  relative viability: 0.403
[2]; first compound 0.08 µM
  relative viability: 1.28
[2]; first compound 0.253 µM
  relative viability: 1.3
[2]; first compound 0.8 µM
  relative viability: 1.11
[2]; first compound 2.53 µM
  relative viability: 0.842
[2]; first compound 8 µM
  relative viability: 0.658
[3]; first compound 0.5 µM
  relative viability: 0.87
[3]; first compound 1.581 µM
  relative viability: 0.598
[3]; first compound 5 µM
  relative viability: 0.922
[3]; first compound 15.81 µM
  relative viability: 0.779
[3]; first compound 50 µM
  relative viability: 0.859
[4]; first compound 0.08 µM
  relative viability: 0.704
[4]; first compound 0.253 µM
  relative viability: 0.721
[4]; first compound 0.8 µM
  relative viability: 0.776
[4]; first compound 2.53 µM
  relative viability: 0.628
[4]; first compound 8 µM
  relative viability: 0.583

## NCI-H3122
[1]; first compound 0.5 µM
  relative viability: 1.07
[1]; first compound 1.581 µM
  relative viability: 0.975
[1]; first compound 5 µM
  relative viability: 0.918
[1]; first compound 15.81 µM
  relative viability: 1.06
[1]; first compound 50 µM
  relative viability: 0.352
[2]; first compound 0.08 µM
  relative viability: 0.814
[2]; first compound 0.253 µM
  relative viability: 0.71
[2]; first compound 0.8 µM
  relative viability: 0.954
[2]; first compound 2.53 µM
  relative viability: 0.93
[2]; first compound 8 µM
  relative viability: 0.766
[3]; first compound 0.5 µM
  relative viability: 1.04
[3]; first compound 1.581 µM
  relative viability: 0.956
[3]; first compound 5 µM
  relative viability: 0.943
[3]; first compound 15.81 µM
  relative viability: 1.01
[3]; first compound 50 µM
  relative viability: 0.567
[4]; first compound 0.08 µM
  relative viability: 0.574
[4]; first compound 0.253 µM
  relative viability: 0.673
[4]; first compound 0.8 µM
  relative viability: 0.691
[4]; first compound 2.53 µM
  relative viability: 0.762
[4]; first compound 8 µM
  relative viability: 0.676

## LOU-NH91
[1]; first compound 0.5 µM
  relative viability: 0.501
[1]; first compound 5 µM
  relative viability: 0.531
[1]; first compound 15.81 µM
  relative viability: 0.384
[1]; first compound 50 µM
  relative viability: 0.426
[2]; first compound 0.08 µM
  relative viability: 0.681
[2]; first compound 0.253 µM
  relative viability: 0.758
[2]; first compound 0.8 µM
  relative viability: 0.726
[2]; first compound 2.53 µM
  relative viability: 0.711
[2]; first compound 8 µM
  relative viability: 0.616
[3]; first compound 0.5 µM
  relative viability: 1.11
[3]; first compound 5 µM
  relative viability: 0.97
[3]; first compound 15.81 µM
  relative viability: 0.543
[3]; first compound 50 µM
  relative viability: 0.665
[4]; first compound 0.08 µM
  relative viability: 0.944
[4]; first compound 0.253 µM
  relative viability: 0.922
[4]; first compound 0.8 µM
  relative viability: 0.917
[4]; first compound 2.53 µM
  relative viability: 0.92
[4]; first compound 8 µM
  relative viability: 0.695

## NCI-H727
[1]; first compound 0.5 µM
  relative viability: 0.985
[1]; first compound 1.581 µM
  relative viability: 0.874
[1]; first compound 5 µM
  relative viability: 0.652
[1]; first compound 15.81 µM
  relative viability: 0.722
[1]; first compound 50 µM
  relative viability: 0.442
[2]; first compound 0.08 µM
  relative viability: 0.759
[2]; first compound 0.253 µM
  relative viability: 0.541
[2]; first compound 0.8 µM
  relative viability: 0.546
[2]; first compound 2.53 µM
  relative viability: 0.534
[2]; first compound 8 µM
  relative viability: 0.304
[3]; first compound 0.5 µM
  relative viability: 0.337
[3]; first compound 1.581 µM
  relative viability: 0.286
[3]; first compound 5 µM
  relative viability: 0.268
[3]; first compound 15.81 µM
  relative viability: 0.229
[3]; first compound 50 µM
  relative viability: 0.301
[4]; first compound 0.08 µM
  relative viability: 0.684
[4]; first compound 0.253 µM
  relative viability: 0.674
[4]; first compound 0.8 µM
  relative viability: 0.867
[4]; first compound 2.53 µM
  relative viability: 0.725
[4]; first compound 8 µM
  relative viability: 0.684

## NCI-H2009
[1]; first compound 0.5 µM
  relative viability: 1.2
[1]; first compound 1.581 µM
  relative viability: 0.954
[1]; first compound 5 µM
  relative viability: 1.19
[1]; first compound 15.81 µM
  relative viability: 0.944
[1]; first compound 50 µM
  relative viability: 0.186
[2]; first compound 0.08 µM
  relative viability: 1.17
[2]; first compound 0.253 µM
  relative viability: 1.03
[2]; first compound 0.8 µM
  relative viability: 1.14
[2]; first compound 2.53 µM
  relative viability: 1.03
[2]; first compound 8 µM
  relative viability: 0.586
[3]; first compound 0.5 µM
  relative viability: 1.33
[3]; first compound 1.581 µM
  relative viability: 1.23
[3]; first compound 5 µM
  relative viability: 1.29
[3]; first compound 15.81 µM
  relative viability: 1.07
[3]; first compound 50 µM
  relative viability: 0.885
[4]; first compound 0.08 µM
  relative viability: 0.776
[4]; first compound 0.253 µM
  relative viability: 0.748
[4]; first compound 0.8 µM
  relative viability: 0.779
[4]; first compound 2.53 µM
  relative viability: 0.544
[4]; first compound 8 µM
  relative viability: 0.268

## NCI-H23
[1]; first compound 0.5 µM
  relative viability: 1.16
[1]; first compound 5 µM
  relative viability: 1.18
[1]; first compound 15.81 µM
  relative viability: 1.03
[1]; first compound 50 µM
  relative viability: 0.656
[2]; first compound 0.08 µM
  relative viability: 0.608
[2]; first compound 0.253 µM
  relative viability: 0.824
[2]; first compound 0.8 µM
  relative viability: 0.741
[2]; first compound 2.53 µM
  relative viability: 0.64
[2]; first compound 8 µM
  relative viability: 0.391
[3]; first compound 0.5 µM
  relative viability: 0.718
[3]; first compound 5 µM
  relative viability: 0.704
[3]; first compound 15.81 µM
  relative viability: 0.629
[3]; first compound 50 µM
  relative viability: 0.496
[4]; first compound 0.08 µM
  relative viability: 0.313
[4]; first compound 0.253 µM
  relative viability: 0.308
[4]; first compound 0.8 µM
  relative viability: 0.302
[4]; first compound 2.53 µM
  relative viability: 0.282
[4]; first compound 8 µM
  relative viability: 0.254

## NCI-H2228
[1]; first compound 0.5 µM
  relative viability: 1.25
[1]; first compound 1.581 µM
  relative viability: 0.952
[1]; first compound 5 µM
  relative viability: 1.05
[1]; first compound 15.81 µM
  relative viability: 0.599
[1]; first compound 50 µM
  relative viability: 0.252
[2]; first compound 0.253 µM
  relative viability: 0.724
[2]; first compound 0.8 µM
  relative viability: 0.78
[2]; first compound 2.53 µM
  relative viability: 0.891
[2]; first compound 8 µM
  relative viability: 0.488
[3]; first compound 0.5 µM
  relative viability: 0.778
[3]; first compound 1.581 µM
  relative viability: 0.783
[3]; first compound 5 µM
  relative viability: 0.734
[3]; first compound 15.81 µM
  relative viability: 0.721
[3]; first compound 50 µM
  relative viability: 0.166
[4]; first compound 0.08 µM
  relative viability: 0.629
[4]; first compound 0.253 µM
  relative viability: 0.338
[4]; first compound 0.8 µM
  relative viability: 0.649
[4]; first compound 2.53 µM
  relative viability: 0.655
[4]; first compound 8 µM
  relative viability: 0.331

From the supplement of paper PMC10307832
